From patent publication US20020137929A1, “1 - (3-heterocyclylphenyl) isothiourea, -isourea, -guanidine and -amidine herbicidal agents” (Intellectual Property Department, BASF Aktiengesellschaft, priority 1998, published 2002)

Columns and labels:
[1] = system: CHEAL (Lambsquarters, Common); test: Preemergence herbicidal evaluation; type: in vivo, Chenopodium album; conditions: rated 4-5 weeks after treatment
Summary of the method: (§1)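 Each species is sown separately in potting soil over roughly an inch of soil before any emergence. The soil surface then receives an aqueous acetone spray delivering about 0.0156 to 0.500 kg/ha of compound. After four to five weeks, injury is scored from 0 to 9 relative to a control.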

[2] = system: TRZAWR (Wheat, Winter, cv Riband); test: Preemergence herbicidal evaluation; type: in vivo, Triticum aestivum; conditions: rated 4-5 weeks after treatment
Summary of the method: as §1

ABUTH (Velvetleaf) = test: Postemergence herbicidal evaluation; type: in vivo, Abutilon theophrasti
Summary of the method: (§2)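 Compound is applied as a foliar spray to seedlings about two weeks old, formulated in equal parts acetone and water with 0.5% TWEEN 20 and delivered at 40 psi to give about 0.0156–0.500 kg per hectare. Injury is rated visually 0–9 after four to five weeks.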

[3] = system: ECHORC (Watergrass (Calif.)); test: Preemergence weed control under flooded paddy conditions; type: in vivo, Echinochloa oryzoides; conditions: rated 3-4 weeks after treatment
Summary of the method: (§3)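 Ratings on a 0-9 visual scale cover stand, vigor, malformation, size, chlorosis and overall appearance relative to a control, taken three to four weeks post-treatment. Application was into flood water over freshly sown silt loam at roughly 0.0313 to 0.500 kg/ha.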

CYPIR (Rice Flatsedge) = test: Postemergence weed control under flooded paddy conditions; type: in vivo, Cyperus iria; conditions: postemergence weeds, 3-4 weeks after treatment
Summary of the method: (§4)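 Injury ratings (0–9 scale covering stand, vigor, malformation, size, chlorosis and overall appearance versus control) were made three to four weeks after treatment. Test material, about 0.0313 to 0.500 kg/ha a.i. in 50/50 v/v aqueous/acetone, was added to flood water 1.5 to 3 cm deep over 3 to 5 cm weeds and 1.5 to 2.5 leaf rice.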

[4] = system: IPOHE (Morningglory, Ivyleaf); test: Preemergence herbicidal evaluation; type: in vivo, Ipomoea hederacea; conditions: rated 4-5 weeks after treatment
Summary of the method: as §1

MOOVA (Monochoria) = test: Preemergence weed control under flooded paddy conditions; type: in vivo, Monochoria vaginalis; conditions: rated 3-4 weeks after treatment
Summary of the method: as §3

SETVI (Foxtail, Green) = test: Preemergence herbicidal evaluation; type: in vivo, Setaria viridis; conditions: rated 4-5 weeks after treatment
Summary of the method: as §1

ECHCG (Barnyardgrass) = test: Preemergence herbicidal evaluation; type: in vivo, Echinochloa crus-galli; conditions: rated 4-5 weeks after treatment
Summary of the method: as §1

[5] = system: TRZAWR (Wheat, Winter, cv Riband); test: Postemergence herbicidal evaluation; type: in vivo, Triticum aestivum
Summary of the method: as §2

[6] = system: IPOHE (Morningglory, Ivyleaf); test: Postemergence herbicidal evaluation; type: in vivo, Ipomoea hederacea
Summary of the method: as §2

ORYSAT (Rice, Tebonnet) = test: Preemergence herbicidal evaluation; type: in vivo, Oryza sativa, (L.) Tebonnet; conditions: rated 4-5 weeks after treatment
Summary of the method: as §1

[7] = system: ECHORC (Watergrass (Calif.)); test: Postemergence weed control under flooded paddy conditions; type: in vivo, Echinochloa oryzoides; conditions: postemergence weeds, 3-4 weeks after treatment
Summary of the method: as §4

## CCOC(=O)CN1C(=O)C(CCO)S/C1=N/c1cc(-n2c(=O)cc(C(F)(F)F)n(C)c2=O)c(F)cc1Cl (stereo not drawn) [Compound 49, Ethyl 2-{{2-chloro-5-[3,6-dihydro-3-methyl-2,6-dioxo-4-(trifluoromethyl)-1(2H)-pyrimidinyl]-4-fluorophenyl}imino}-5-(hydroxyethyl)-4-oxo-3-thiazolidineacetate]
[1]; rate 0.0156 kg/ha
  Preemergence herbicidal rating CHEAL: 9.0
[1]; rate 0.0313 kg/ha
  Preemergence herbicidal rating CHEAL: 9.0
[1]; rate 0.0625 kg/ha
  Preemergence herbicidal rating CHEAL: 9.0
[1]; rate 0.1250 kg/ha
  Preemergence herbicidal rating CHEAL: 9.0
[1]; rate 0.2500 kg/ha
  Preemergence herbicidal rating CHEAL: 9.0
[2]; rate 0.0156 kg/ha
  Preemergence herbicidal rating TRZAWR: 0.0
[2]; rate 0.0313 kg/ha
  Preemergence herbicidal rating TRZAWR: 0.0
[2]; rate 0.0625 kg/ha
  Preemergence herbicidal rating TRZAWR: 0.0
[2]; rate 0.1250 kg/ha
  Preemergence herbicidal rating TRZAWR: 0.0
[2]; rate 0.2500 kg/ha
  Preemergence herbicidal rating TRZAWR: 2.0
ABUTH (Velvetleaf); Rate 0.0313 kg/ha
  Postemergence herbicidal rating ABUTH: 9.0
ABUTH (Velvetleaf); Rate 0.0625 kg/ha
  Postemergence herbicidal rating ABUTH: 9.0
ABUTH (Velvetleaf); rate 0.0156 kg/ha
  Postemergence herbicidal rating ABUTH: 9.0
[3]; 0.0313 kg/ha
  Herbicidal rating ECHORC: 0.0
[3]; 0.0625 kg/ha
  Herbicidal rating ECHORC: 2.0
[3]; 0.1250 kg/ha
  Herbicidal rating ECHORC: 5.0
[3]; 0.2500 kg/ha
  Herbicidal rating ECHORC: 7.0
CYPIR (Rice Flatsedge); rate 0.0313 kg/ha
  Herbicidal rating CYPIR: 0.0
CYPIR (Rice Flatsedge); rate 0.0625 kg/ha
  Herbicidal rating CYPIR: 0.0
CYPIR (Rice Flatsedge); rate 0.1250 kg/ha
  Herbicidal rating CYPIR: 2.0
CYPIR (Rice Flatsedge); rate 0.2500 kg/ha
  Herbicidal rating CYPIR: 7.0
[4]; rate 0.0156 kg/ha
  Preemergence herbicidal rating IPOHE: 0.0
[4]; rate 0.0313 kg/ha
  Preemergence herbicidal rating IPOHE: 0.0
[4]; rate 0.0625 kg/ha
  Preemergence herbicidal rating IPOHE: 2.0
[4]; rate 0.1250 kg/ha
  Preemergence herbicidal rating IPOHE: 9.0
[4]; rate 0.2500 kg/ha
  Preemergence herbicidal rating IPOHE: 9.0
MOOVA (Monochoria); 0.0313 kg/ha
  Herbicidal rating MOOVA: 9.0
MOOVA (Monochoria); 0.0625 kg/ha
  Herbicidal rating MOOVA: 9.0
MOOVA (Monochoria); 0.1250 kg/ha
  Herbicidal rating MOOVA: 9.0
MOOVA (Monochoria); 0.2500 kg/ha
  Herbicidal rating MOOVA: 9.0
SETVI (Foxtail, Green); rate 0.0156 kg/ha
  Preemergence herbicidal rating SETVI: 0.0
SETVI (Foxtail, Green); rate 0.0313 kg/ha
  Preemergence herbicidal rating SETVI: 4.0
SETVI (Foxtail, Green); rate 0.0625 kg/ha
  Preemergence herbicidal rating SETVI: 5.0
SETVI (Foxtail, Green); rate 0.2500 kg/ha
  Preemergence herbicidal rating SETVI: 5.0
ECHCG (Barnyardgrass); rate 0.0156 kg/ha
  Preemergence herbicidal rating ECHCG: 0.0
ECHCG (Barnyardgrass); rate 0.0313 kg/ha
  Preemergence herbicidal rating ECHCG: 0.0
ECHCG (Barnyardgrass); rate 0.0625 kg/ha
  Preemergence herbicidal rating ECHCG: 0.0
ECHCG (Barnyardgrass); rate 0.1250 kg/ha
  Preemergence herbicidal rating ECHCG: 0.0
ECHCG (Barnyardgrass); rate 0.2500 kg/ha
  Preemergence herbicidal rating ECHCG: 3.0
[5]; Rate 0.0313 kg/ha
  Postemergence herbicidal rating TRZAWR: 4.5
[5]; Rate 0.0625 kg/ha
  Postemergence herbicidal rating TRZAWR: 4.5
[5]; rate 0.0156 kg/ha
  Postemergence herbicidal rating TRZAWR: 4.0
[6]; Rate 0.0313 kg/ha
  Postemergence herbicidal rating IPOHE: 9.0
[6]; Rate 0.0625 kg/ha
  Postemergence herbicidal rating IPOHE: 9.0
[6]; rate 0.0156 kg/ha
  Postemergence herbicidal rating IPOHE: 9.0
ORYSAT (Rice, Tebonnet); rate 0.0156 kg/ha
  Preemergence herbicidal rating ORYSAT: 0.0
ORYSAT (Rice, Tebonnet); rate 0.0313 kg/ha
  Preemergence herbicidal rating ORYSAT: 0.0
ORYSAT (Rice, Tebonnet); rate 0.0625 kg/ha
  Preemergence herbicidal rating ORYSAT: 0.0
ORYSAT (Rice, Tebonnet); rate 0.1250 kg/ha
  Preemergence herbicidal rating ORYSAT: 5.0
ORYSAT (Rice, Tebonnet); rate 0.2500 kg/ha
  Preemergence herbicidal rating ORYSAT: 5.0
[7]; rate 0.0313 kg/ha
  Herbicidal rating ECHORC: 0.0
[7]; rate 0.0625 kg/ha
  Herbicidal rating ECHORC: 2.0
[7]; rate 0.1250 kg/ha
  Herbicidal rating ECHORC: 5.0
[7]; rate 0.2500 kg/ha
  Herbicidal rating ECHORC: 7.0
